From ChEMBL document CHEMBL1201862, “PubChem BioAssay data set” (2004)
The source made the active and inactive calls.

What was measured:
Vero [1] = test: host cell cytotoxicity of antiviral hits, dose response, cytotoxicity control for West Nile virus antiviral project, secondary assay (AID 1650); assay type: functional; details: Chlorocebus sabaeus
Vero [2] = test: West Nile virus antiviral activity, cell-based, CPE readout (AID 1621); assay type: functional; details: Chlorocebus sabaeus
[3] = C. albicans growth with fluconazole, confirmation, fluorescence, retest (AID 2467); assay type: functional, cell-based
[4] = target: T1, Alkaline phosphatase, tissue-nonspecific isozyme (Homo sapiens, UniProt P05186); test: TNAP enzyme inhibition by screening hits, dose response, selectivity assay for mouse IAP inhibitor project, biochemical, human TNAP, uHTS hits (AID 488906); assay type: functional
T1 sequence (P05186 whole entry): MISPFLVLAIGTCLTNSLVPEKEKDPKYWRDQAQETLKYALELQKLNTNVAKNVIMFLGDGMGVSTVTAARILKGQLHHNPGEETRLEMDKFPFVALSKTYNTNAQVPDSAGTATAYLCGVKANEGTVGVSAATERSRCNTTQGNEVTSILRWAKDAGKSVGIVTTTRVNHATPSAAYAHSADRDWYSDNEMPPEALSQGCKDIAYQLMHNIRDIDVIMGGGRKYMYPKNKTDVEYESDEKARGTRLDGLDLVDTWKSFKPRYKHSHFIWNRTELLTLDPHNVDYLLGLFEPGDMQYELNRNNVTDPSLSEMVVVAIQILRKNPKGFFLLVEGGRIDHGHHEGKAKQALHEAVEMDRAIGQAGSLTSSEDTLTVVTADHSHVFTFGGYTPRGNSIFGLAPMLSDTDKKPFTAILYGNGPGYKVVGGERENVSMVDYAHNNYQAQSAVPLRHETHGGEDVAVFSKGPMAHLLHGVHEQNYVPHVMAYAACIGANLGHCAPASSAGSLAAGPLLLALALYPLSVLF

Large T antigen = Large T antigen (Simian virus 40, UniProt P03070); assay type: functional, Betapolyomavirus macacae;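 also: Confirmatory-stage PubChem screen for compounds that inhibit SV40 T antigen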
[5] = target: T2, Histone-lysine N-methyltransferase NSD2 (Homo sapiens, UniProt O96028); assay type: biochemical
T2 sequence (O96028 whole entry): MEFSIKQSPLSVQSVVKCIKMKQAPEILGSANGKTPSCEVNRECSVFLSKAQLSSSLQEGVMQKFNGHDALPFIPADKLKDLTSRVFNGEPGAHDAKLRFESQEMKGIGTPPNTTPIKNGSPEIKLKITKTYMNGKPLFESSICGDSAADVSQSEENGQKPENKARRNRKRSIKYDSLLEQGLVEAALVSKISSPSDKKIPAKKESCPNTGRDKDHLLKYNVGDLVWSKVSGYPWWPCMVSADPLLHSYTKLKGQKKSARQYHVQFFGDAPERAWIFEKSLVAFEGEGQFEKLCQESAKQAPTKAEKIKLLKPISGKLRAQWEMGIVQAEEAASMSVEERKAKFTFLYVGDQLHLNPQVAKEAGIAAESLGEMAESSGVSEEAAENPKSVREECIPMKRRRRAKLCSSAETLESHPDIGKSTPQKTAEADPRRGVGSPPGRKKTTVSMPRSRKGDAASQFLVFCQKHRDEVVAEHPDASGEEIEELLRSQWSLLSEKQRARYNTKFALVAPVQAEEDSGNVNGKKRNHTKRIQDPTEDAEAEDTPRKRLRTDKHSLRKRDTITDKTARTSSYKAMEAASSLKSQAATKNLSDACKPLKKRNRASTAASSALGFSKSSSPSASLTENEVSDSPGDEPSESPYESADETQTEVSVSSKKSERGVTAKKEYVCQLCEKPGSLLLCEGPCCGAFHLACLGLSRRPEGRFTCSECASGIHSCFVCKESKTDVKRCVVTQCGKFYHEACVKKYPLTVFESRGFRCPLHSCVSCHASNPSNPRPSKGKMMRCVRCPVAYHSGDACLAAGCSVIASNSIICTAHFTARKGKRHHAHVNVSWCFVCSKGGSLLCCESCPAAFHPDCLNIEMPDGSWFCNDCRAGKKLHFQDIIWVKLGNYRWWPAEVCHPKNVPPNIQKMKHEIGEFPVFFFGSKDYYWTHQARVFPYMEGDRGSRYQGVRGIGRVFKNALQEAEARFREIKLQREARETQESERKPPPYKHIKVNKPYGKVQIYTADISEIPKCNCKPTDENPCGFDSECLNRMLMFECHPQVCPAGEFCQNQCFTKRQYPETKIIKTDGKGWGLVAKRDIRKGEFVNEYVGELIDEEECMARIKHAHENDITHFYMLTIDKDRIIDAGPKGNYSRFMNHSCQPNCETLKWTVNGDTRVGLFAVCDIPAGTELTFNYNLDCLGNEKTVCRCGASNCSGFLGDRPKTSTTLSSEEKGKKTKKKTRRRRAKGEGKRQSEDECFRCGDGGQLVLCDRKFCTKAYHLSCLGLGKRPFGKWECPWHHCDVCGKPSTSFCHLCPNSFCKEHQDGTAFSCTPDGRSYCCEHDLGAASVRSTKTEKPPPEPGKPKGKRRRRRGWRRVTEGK

Albumin = Albumin (Bos taurus, UniProt P02769); test: Counterscreen for inhibitors of T-cell receptor (TCR)-CD3 interaction: Fluorescence-based biochemical high throughput dose response assay to identify inhibitors of T-cell receptor (TCR)-CD3 interaction using a TAMRA-labeled BSA probe.; assay type: functional
[6] = target: Induced myeloid leukemia cell differentiation protein Mcl-1 (Homo sapiens, UniProt Q07820); test: MCL1-BIM BH3 interaction inhibitors, dose response, biochemical, fluorescence polarization, BIM-BH3 peptide, 1536-well (AID 2217)
Estrogen receptor beta [7] = target: T3, Estrogen receptor beta (Homo sapiens, UniProt Q92731); test: ERβ–SRC-3 coactivator interaction inhibitors, confirmation, orthogonal assay, biochemical, ELISA, streptavidin-HRP readout (AID 1060)
[8] = NIH-3T3 fibroblast cytotoxicity, dose response, cytotoxicity control, cell-based, fluorescence, Alamar Blue, secondary assay (AID 2327); assay type: functional;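 also: NIH-3T3 mouse fibroblasts cultured with fluconazole at 8 µg/mL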
Bcl-2-like protein 1 = Bcl-2-like protein 1 (Homo sapiens, UniProt Q07817); test: BCL-XL inhibitors, dose response, selectivity assay for MCL1 inhibitor project, biochemical, fluorescence polarization, 1536-well (AID 2218)
Leucine aminopeptidase = target: T4, Leucine aminopeptidase (Plasmodium falciparum 3D7, UniProt Q8IL11); test: P. falciparum M17LAP inhibitors, primary screen, biochemical, fluorogenic H-Leu-NHMec substrate, 1536-well (AID 1619); assay type: functional
T4 sequence (Q8IL11 whole entry): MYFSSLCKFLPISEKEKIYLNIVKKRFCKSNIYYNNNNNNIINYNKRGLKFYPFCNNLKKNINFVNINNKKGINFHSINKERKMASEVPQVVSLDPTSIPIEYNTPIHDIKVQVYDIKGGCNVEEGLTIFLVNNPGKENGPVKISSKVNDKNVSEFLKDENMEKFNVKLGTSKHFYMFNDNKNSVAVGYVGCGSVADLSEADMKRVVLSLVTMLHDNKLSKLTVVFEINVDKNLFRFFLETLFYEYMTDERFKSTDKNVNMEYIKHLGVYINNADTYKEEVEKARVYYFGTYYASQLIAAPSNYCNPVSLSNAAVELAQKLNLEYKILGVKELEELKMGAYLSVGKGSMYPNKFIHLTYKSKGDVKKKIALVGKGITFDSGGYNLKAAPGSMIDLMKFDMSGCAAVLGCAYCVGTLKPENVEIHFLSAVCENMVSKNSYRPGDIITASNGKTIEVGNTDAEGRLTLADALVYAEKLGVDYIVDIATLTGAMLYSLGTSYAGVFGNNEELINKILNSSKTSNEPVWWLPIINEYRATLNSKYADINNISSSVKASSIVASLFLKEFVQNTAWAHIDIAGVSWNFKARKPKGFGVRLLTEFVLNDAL

[9] = target: Intestinal-type alkaline phosphatase (Homo sapiens, UniProt P09923); test: inhibition of human intestinal alkaline phosphatase – biochemical, dose response (AID 488876); assay type: functional
Estrogen receptor beta [10] = target: T3, Estrogen receptor beta
[11] = target: Intestinal-type alkaline phosphatase (Mus musculus, UniProt P24822); test: PubChem AID 488785; assay type: functional
[12] = inhibitors of intracellular T. cruzi replication, confirmation, NIH3T3 host cells, beta-gal luminescence (AID 2044); assay type: functional, cell-based;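 also: intracellular parasites grown in NIH/3T3 mouse fibroblasts as host cells; luminescent beta-galactosidase reporter signal from transgenic T. cruzi replicating inside host cells; inhibitors lower the luminescence signal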
[13] = cytotoxicity toward NIH3T3 fibroblasts, dose response, counter-screen, cell-based, ATP luminescence, mouse fibroblasts (AID 2010); assay type: functional;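 also: cells exposed to compound for about 90 hours before reading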

T3 sequence (Q92731 whole entry): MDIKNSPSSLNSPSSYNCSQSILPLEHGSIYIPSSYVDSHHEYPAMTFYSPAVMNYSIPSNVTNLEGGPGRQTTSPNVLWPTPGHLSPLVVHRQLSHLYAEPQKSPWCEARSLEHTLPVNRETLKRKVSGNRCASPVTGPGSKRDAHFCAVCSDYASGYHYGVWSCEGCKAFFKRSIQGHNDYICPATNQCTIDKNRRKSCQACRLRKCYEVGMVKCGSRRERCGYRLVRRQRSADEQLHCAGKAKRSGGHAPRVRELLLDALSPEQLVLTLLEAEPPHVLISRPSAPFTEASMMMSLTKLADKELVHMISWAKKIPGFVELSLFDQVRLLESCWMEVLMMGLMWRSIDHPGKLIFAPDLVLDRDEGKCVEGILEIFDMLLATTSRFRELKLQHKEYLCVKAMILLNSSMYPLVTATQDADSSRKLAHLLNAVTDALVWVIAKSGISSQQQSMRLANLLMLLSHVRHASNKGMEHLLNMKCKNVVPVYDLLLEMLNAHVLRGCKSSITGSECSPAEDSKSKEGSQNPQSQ
Albumin, sequence (P02769 whole entry): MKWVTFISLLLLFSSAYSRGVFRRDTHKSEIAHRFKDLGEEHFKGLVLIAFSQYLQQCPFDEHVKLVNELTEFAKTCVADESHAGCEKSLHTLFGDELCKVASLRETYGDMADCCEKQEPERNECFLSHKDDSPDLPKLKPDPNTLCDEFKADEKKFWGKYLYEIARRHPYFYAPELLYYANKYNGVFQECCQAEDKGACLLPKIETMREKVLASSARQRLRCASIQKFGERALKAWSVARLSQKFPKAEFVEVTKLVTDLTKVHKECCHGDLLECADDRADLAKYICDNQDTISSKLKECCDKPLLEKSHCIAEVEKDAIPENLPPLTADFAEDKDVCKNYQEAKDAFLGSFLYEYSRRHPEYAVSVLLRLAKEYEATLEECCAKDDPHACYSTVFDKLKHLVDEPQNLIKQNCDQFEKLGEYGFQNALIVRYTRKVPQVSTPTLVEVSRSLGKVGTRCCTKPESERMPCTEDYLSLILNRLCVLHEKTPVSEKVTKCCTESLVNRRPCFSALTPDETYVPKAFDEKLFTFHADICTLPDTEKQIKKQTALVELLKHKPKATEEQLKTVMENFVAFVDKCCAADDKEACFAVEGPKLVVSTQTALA
Bcl-2-like protein 1, sequence (Q07817 whole entry): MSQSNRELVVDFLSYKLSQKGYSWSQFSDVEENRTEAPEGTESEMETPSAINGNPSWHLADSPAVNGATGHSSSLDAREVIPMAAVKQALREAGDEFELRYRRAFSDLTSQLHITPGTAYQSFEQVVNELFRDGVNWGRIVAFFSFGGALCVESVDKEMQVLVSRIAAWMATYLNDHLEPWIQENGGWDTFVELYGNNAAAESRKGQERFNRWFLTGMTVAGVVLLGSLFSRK
Intestinal-type alkaline phosphatase (Mus musculus, UniProt P24822), sequence (P24822 whole entry): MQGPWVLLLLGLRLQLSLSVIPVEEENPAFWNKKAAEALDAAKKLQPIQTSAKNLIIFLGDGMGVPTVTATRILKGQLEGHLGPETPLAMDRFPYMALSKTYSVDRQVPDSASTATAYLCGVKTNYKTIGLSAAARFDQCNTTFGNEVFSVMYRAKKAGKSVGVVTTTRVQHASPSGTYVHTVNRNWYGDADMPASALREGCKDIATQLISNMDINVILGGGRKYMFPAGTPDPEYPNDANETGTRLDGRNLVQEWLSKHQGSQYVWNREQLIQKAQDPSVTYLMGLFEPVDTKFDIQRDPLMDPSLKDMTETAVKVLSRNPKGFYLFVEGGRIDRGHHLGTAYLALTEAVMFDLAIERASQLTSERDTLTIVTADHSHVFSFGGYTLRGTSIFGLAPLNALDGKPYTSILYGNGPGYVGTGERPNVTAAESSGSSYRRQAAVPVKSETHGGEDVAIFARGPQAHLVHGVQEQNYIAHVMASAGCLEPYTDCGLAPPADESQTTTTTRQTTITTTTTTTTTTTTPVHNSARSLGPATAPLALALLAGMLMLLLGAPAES
Large T antigen, sequence (P03070 whole entry): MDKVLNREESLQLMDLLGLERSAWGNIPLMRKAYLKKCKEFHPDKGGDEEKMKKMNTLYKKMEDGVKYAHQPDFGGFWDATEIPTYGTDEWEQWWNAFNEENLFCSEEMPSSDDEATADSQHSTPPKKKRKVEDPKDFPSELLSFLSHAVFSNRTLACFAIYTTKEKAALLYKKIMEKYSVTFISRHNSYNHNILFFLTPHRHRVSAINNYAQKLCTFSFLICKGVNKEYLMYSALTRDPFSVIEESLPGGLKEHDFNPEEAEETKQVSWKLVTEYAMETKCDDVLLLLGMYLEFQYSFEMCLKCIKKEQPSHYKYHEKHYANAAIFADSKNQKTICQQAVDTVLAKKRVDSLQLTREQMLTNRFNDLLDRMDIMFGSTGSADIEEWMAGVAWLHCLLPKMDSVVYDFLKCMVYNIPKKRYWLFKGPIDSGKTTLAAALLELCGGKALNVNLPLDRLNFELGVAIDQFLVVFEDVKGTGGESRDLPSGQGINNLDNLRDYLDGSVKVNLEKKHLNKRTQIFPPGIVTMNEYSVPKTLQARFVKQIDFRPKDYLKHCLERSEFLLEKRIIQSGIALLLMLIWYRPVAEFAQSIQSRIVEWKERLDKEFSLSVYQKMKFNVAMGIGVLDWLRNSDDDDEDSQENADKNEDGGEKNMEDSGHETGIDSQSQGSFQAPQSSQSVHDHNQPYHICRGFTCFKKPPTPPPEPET
Intestinal-type alkaline phosphatase (Homo sapiens, UniProt P09923), sequence (P09923 whole entry): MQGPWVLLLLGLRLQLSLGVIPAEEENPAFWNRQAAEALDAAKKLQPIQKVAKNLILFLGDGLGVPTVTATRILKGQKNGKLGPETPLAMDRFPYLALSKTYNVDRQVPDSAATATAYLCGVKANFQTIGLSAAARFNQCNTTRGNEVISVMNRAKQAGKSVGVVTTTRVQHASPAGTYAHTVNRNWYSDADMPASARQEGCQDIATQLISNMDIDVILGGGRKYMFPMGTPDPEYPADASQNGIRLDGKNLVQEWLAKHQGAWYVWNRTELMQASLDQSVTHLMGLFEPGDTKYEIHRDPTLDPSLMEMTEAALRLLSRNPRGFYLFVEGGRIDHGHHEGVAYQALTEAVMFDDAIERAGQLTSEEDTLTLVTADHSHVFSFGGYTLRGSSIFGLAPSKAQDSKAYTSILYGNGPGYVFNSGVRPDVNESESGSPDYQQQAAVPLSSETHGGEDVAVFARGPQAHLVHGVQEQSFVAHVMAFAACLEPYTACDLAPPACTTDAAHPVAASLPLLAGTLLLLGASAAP
Induced myeloid leukemia cell differentiation protein Mcl-1, sequence (Q07820 whole entry): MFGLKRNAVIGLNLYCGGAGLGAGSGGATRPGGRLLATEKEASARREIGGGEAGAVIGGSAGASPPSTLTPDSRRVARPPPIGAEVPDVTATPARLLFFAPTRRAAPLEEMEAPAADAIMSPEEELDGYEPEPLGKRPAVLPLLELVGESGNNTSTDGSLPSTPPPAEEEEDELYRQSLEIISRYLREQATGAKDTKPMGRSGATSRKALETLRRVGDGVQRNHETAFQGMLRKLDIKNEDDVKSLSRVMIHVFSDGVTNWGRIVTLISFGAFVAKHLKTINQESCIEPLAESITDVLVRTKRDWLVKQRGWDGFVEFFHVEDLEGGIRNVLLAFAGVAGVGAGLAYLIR

## CN(C)CCCNC(=O)c1cc2sc3ccccc3c2s1
Vero [1]
  CC50: 14.6 µM (active)
Vero [2]
  IC50: 21.4 µM (active)

## CCn1c(SCC(=O)c2ccc(O)c(O)c2)nnc1-c1ccccc1OC
[3]
  EC50: > 38 µM (not active)
[4]
  IC50: > 100 µM (inactive)
Large T antigen
  IC50: 7.83 µM (active)
[5]
  AC50: 9.05 µM (active)
Albumin
  IC50: > 94.1 µM (inactive)
[6]
  IC50: 37.4 µM (not active)
Estrogen receptor beta [7]
  IC50: 93.8 µM (not active)
[8]
  EC50: > 160 µM (inactive)
Bcl-2-like protein 1
  IC50: > 109 µM (not active)
Leucine aminopeptidase
  IC50: 24.4 µM (active)
[9]
  IC50: > 100 µM (inactive)
Estrogen receptor beta [10]
  IC50: 5.06 µM (active)
[11]
  IC50: 1.43 µM (active)

## O=C1NC(=O)N(C2CCCCCC2)C(=O)/C1=C/NC1CCN(Cc2ccccc2)CC1
cells
  EC50: 0.361 µM (active)
[12]
  EC50: < 0.1 µM (active)
[13]
  EC50: 23.5 µM (active)
